Assay results published in US5705649A, “Protein staining compositions and methods” (Promega Corporation, priority 1995, dated 1998).

What was measured:
bovine serum albumin = experiment: Analysis of partial proteolytic products (Cleveland analysis)
Protocol: The comparison of proteins by analysis of the products of partial proteolysis using SDS-PAGE electrophoresis has been reported extensively in the literature. This analysis, termed Cleveland analysis, can provide important information on many different types of covalent changes that can occur on proteins.
An 8% SDS-PAGE gel was made as described in Example 5. A 5 μl sample of 1× loading buffer containing 4 μg of Bovine serum albumin previously heated at 95° C. for 5 minutes was placed in several of the wells and electrophoresis was performed as described in Example 5.
A second […] 16% SDS-PAGE gel was made as described in Example 5.
After electrophoresis, segments of the gel containing the BSA sample were excised by use of a razor blade and loaded into three of the sample wells of the second, 16 % gel. Then, 20 μl of 1× loading buffer containing 0.5 μg of Endoprotease Glu C, 0.5 μg of Endoprotease Lys C and 0.1 μg of Alkaline Protease, respectively, was added to individual wells containing the gel slices. Also, 5 μl of a solution of 4 μg of BSA in 1× loading buffer that was previously heated to 95° C. for 15 minutes was placed in a second set of three wells. To each of these three samples was added individual 20 μl solutions containing 0.5 μg of Endoprotease Glu C, 0.5 μg of Endoprotease Lys C, or 0.1 μg of Alkaline Protease, respectively. […]

[1] = system: Promega Mid-Range Molecular Weight Markers; experiment: Recovery of protein using novel recovery method (liquid reservoir in gel); details: 8% SDS-PAGE gel, slots below bands
From the text: Because Promega Green 1 can be used to stain protein during electrophoretic separations, we determined that proteins separated by gel electrophoresis can be recovered into a liquid reservoir placed in the gel. This is possible only with in-situ stained proteins because it would not be obvious where to place the liquid reservoir otherwise.
Accordingly, an 8% SDS-PAGE gel was made, loaded and run as described in the preceding example. After the run was complete, one of the glass plates encasing the gel was removed and 1.0×0.3 cm slots were excised from the gel immediately below the 97, 66, 40, and 31 kilodalton standards The gel was then placed in a flat bed electrophoresis apparatus which had its buffer chambers filled with 25 mM tris base, 192 mM glycine (electrode buffer) to the level of the central, raised portion of the apparatus. The gel was placed in the apparatus such that the acrylamide gel above the remaining glass plate was filled with electrode buffer. The slots were also filled with electrode buffer and electric connection was made between the gel and the buffer chambers by use of Whatman 3 mM paper wicks soaked in transfer buffer and then 160 V was applied to the apparatus for 2 minutes. After this, the buffer in the slots was removed and placed in 1.5 ml Eppendorf tubes, the slots were refilled with fresh electrode buffer and the voltage was reapplied. […]

[2] = system: Promega Mid-Range Molecular Weight Markers; experiment: Enhancement of staining of proteins in SDS-PAGE gels in 5% acetic acid
Protocol: The gels described above were placed in 5% acetic acid following the termination of the electrophoretic separation. Within one to two minutes the gel developed a light green background but the protein bands dramatically darkened to a green color. […] Again, the color of the background darkened to a greater degree when greater concentrations of dye were used.
The gels above (from Example 7) were placed in 5% acetic acid following termination of the electrophoretic separation. Within 1-2 minutes, all the gels turned light green and the color of the stained bands intensified such that all proteins were visible--even in the lane containing 0.25 μg protein/band.
The gels above (Example 9) were placed in 5% acetic acid following termination of the electrophoretic separation. Within 1-2 minutes, all the gels turned light green and the color of the stained bands intensified such that all proteins were visible--even in the lanes containing 0.25 μg protein/band.

[3] = system: bovine serum albumin (BSA); experiment: Effect of solution pH on absorption in presence and absence of protein; type: physicochemical
Protocol: The effect of solution pH on the absorption of Promega Green 1 in the presence and absence of added protein was studied by dilution of Promega Green 1 solution at a ratio of 1:1000 (v/v) into various solutions containing 0 or 100 μg of protein (bovine serum albumin (BSA)) per ml of liquid. The solutions tested were highly acidic (1N HCl), moderately acidic (2% acetic acid), weakly acidic (50 mM ammonium acetate pH 4.0), weakly basic (50 mM ammonium bicarbonate pH 7.8), and strongly basic (500 mM Tris base). The absorption spectra of the solutions were measured from […] and the peak absorbances are reported below.

[4] = moderately acidic (2% acetic acid), protein absent
[5] = moderately acidic (2% acetic acid), protein present (100 μg/ml BSA)
[6] = strongly acidic (1N HCl), protein absent
[7] = strongly acidic (1N HCl), protein present (100 μg/ml BSA)
[8] = strongly basic (500 mM Tris base), protein absent
[9] = strongly basic (500 mM Tris base), protein present (100 μg/ml BSA)
[10] = weakly acidic (50 mM ammonium acetate pH 4.0), protein absent
[11] = weakly acidic (50 mM ammonium acetate pH 4.0), protein present (100 μg/ml BSA)
[12] = weakly basic (50 mM ammonium bicarbonate pH 7.8), protein absent
[13] = weakly basic (50 mM ammonium bicarbonate pH 7.8), protein present (100 μg/ml BSA)

Question: CCCCCCCC(=O)N(c1ccc(OCC)cc1)c1ccc(C(=C2C=CC(=[N+](CC)Cc3cccc(S(=O)(=O)[O-])c3)C=C2)c2ccc(N(CC)Cc3cccc(S(=O)(=O)O)c3)cc2)cc1 [Promega Green 1] was tested. Which “visibility of partial proteolytic pattern” value (bovine serum albumin; 30% methanol, 4% acetic acid enhancement) did it give?
Answer: The value was “readily apparent in a very short period of time”.

Question: What about the “interference with Cleveland type protein analysis” value (bovine serum albumin; Endoprotease Glu C, Endoprotease Lys C, Alkaline Protease) of the same molecule?
Answer: The value was “does not interfere with Cleveland type protein analysis”.

Question: What about the “capture of protein bands in liquid reservoir” value [1] of the same molecule?
Answer: Its value is “the desired protein bands had been captured by this method”.

Question: What about the “visibility of protein bands after enhancement” value ([2]; 5% acetic acid, one to two minutes) of the same molecule?
Answer: Its value is “All of the protein bands in all the lanes having sample were now visible”.

Question: What about the “staining after overnight incubation” value ([2]; 5% acetic acid, overnight) of the same molecule?
Answer: The value was “appeared to darken slightly”.

Question: And the overall performance ([2]; Examples 5-10)?
Answer: The overall performance was “most desirable properties of the compounds tested”.

Question: And the “ABS (peak absorbance)” value [3, 4]?
Answer: Its value is 0.83.

Question: What about the absorption max [3, 4] of the same molecule?
Answer: Its absorption max is 631 nm.

Question: And the “ABS (peak absorbance)” value [3, 5]?
Answer: The value was 0.98.

Question: And the absorption max [3, 5]?
Answer: Its absorption max is 635 nm.

Question: What about the “ABS (peak absorbance)” value [3, 6] of the same molecule?
Answer: The value was 0.27.

Question: And the absorption max [3, 6]?
Answer: Its absorption max is 649 nm.

Question: What about the “ABS (peak absorbance)” value [3, 7] of the same molecule?
Answer: Its value is 0.39.

Question: What about the absorption max [3, 7] of the same molecule?
Answer: Its absorption max is 641 nm.

Question: And the “ABS (peak absorbance)” value [3, 8]?
Answer: The value was 0.22.

Question: And the absorption max [3, 8]?
Answer: Its absorption max is 637 nm.

Question: What about the “ABS (peak absorbance)” value [3, 9] of the same molecule?
Answer: Its value is 0.128.

Question: What about the absorption max [3, 9] of the same molecule?
Answer: Its absorption max is 637 nm.

Question: And the “ABS (peak absorbance)” value [3, 10]?
Answer: Its value is 0.49.

Question: What about the absorption max [3, 10] of the same molecule?
Answer: The absorption max was 636 nm.

Question: What about the “ABS (peak absorbance)” value [3, 11] of the same molecule?
Answer: Its value is 0.25.

Question: What about the absorption max [3, 11] of the same molecule?
Answer: Its absorption max is 638 nm.

Question: What about the “ABS (peak absorbance)” value [3, 12] of the same molecule?
Answer: The value was 0.49.

Question: And the absorption max [3, 12]?
Answer: Its absorption max is 636 nm.

Question: What about the “ABS (peak absorbance)” value [3, 13] of the same molecule?
Answer: Its value is 0.26.

Question: And the absorption max [3, 13]?
Answer: Its absorption max is 637 nm.
